From paper PMC9953295, “Commonly Used Therapeutics Associated with Changes in Arousal Inhibit GABAAR Activation” (Biomolecules, 2023)
Counter-ions that a name gives are not always drawn.

Columns and labels:
[1] = biological target: α1β2γ2L GABAA receptors stably expressed in HEK293 cells (Mus musculus, UniProt P22723+P62812+P63137); format: cell-based; conditions: for nH: Hill coefficient of modulator concentration-response; for Effect on GABAA receptor activation (in words): microfluidic patch clamp, concentrations up to 300 μM
Sequence of α1β2γ2L GABAA receptors stably expressed in HEK293 cells (P63137 26-512): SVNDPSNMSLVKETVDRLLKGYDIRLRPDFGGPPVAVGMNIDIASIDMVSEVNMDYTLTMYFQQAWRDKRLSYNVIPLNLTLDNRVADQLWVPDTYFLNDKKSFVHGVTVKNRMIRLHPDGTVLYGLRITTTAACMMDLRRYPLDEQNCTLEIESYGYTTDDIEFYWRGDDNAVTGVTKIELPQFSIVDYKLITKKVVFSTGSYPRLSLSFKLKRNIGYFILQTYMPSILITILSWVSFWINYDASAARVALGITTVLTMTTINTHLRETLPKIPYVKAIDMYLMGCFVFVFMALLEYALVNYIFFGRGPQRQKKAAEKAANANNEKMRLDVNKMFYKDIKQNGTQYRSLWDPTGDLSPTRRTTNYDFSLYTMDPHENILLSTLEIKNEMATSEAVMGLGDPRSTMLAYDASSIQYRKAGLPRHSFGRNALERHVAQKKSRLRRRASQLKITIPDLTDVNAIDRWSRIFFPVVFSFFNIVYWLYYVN
Sequence of α1β2γ2L GABAA receptors stably expressed in HEK293 cells (P22723 39-474): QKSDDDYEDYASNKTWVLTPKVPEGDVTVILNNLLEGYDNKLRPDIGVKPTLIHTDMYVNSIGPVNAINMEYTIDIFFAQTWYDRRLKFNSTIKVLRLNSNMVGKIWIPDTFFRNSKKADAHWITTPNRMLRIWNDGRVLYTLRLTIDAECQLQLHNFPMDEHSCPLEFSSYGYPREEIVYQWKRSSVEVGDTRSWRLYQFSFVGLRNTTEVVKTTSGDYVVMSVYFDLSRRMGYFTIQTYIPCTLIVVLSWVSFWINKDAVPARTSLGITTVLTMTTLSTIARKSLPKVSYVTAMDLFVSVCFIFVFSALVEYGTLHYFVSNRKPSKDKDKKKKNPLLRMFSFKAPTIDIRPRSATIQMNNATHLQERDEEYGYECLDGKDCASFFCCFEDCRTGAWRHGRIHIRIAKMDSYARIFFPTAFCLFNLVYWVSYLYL
Sequence of α1β2γ2L GABAA receptors stably expressed in HEK293 cells (P62812 28-455): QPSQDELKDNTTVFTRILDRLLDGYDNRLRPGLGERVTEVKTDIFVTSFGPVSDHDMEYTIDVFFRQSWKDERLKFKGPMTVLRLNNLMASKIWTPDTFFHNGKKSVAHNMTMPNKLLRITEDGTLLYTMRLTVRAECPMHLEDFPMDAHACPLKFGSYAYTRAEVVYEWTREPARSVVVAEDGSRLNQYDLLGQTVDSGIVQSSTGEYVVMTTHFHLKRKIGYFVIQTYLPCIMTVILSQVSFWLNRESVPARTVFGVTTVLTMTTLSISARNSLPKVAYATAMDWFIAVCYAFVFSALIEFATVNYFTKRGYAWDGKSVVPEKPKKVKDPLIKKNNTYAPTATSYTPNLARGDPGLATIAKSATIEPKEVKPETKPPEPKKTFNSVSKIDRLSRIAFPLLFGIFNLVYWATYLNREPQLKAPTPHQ
Description: Extracellular saline solutions contained 140 mM NaCl, 5 mM KCl, 2 mM CaCl2, 1 mM MgCl2, 10 mM HEPES, and 10 mM D-glucose. Both salines were adjusted to pH 7.4 (330 mOsm) and were 0.2 µm filter sterilized. The composition was based on solutions designed for long duration HEK293 biophysics studies. HEK293 cells stably expressing mouse α1β2γ2L receptors were dissociated with detachin (Genlantis, San Diego, CA, USA), resuspended in extracellular saline (2.5 × 10^6 cells/mL), and agitated prior to loading into 384-well Fluxion ensemble plates.
Cells were patched using an Ionflux Mercury microfluidic automated patch clamp system (Fluxion Biosciences, Oakland, CA, USA). Each experiment ran on a disposable 384-well plate with microfluidic channels printed into an ionized polydimethylsiloxane base. Each plate was divided into 4 zones, each containing 8 repeats of the same experimental pattern (see Figure 1). Each pattern comprised 8 compound wells containing the ligands/modulator combinations to be used in the experiment. Connected to these by a manifold perfusion chamber was an inlet well containing the cell suspension, an outlet well for discarded perfusate, and 2 trapping wells. Both trapping wells contained intracellular solution and were connected to the manifold via 20 1 µm diameter holes for cell attachment (each pattern can patch up to 40 cells simultaneously). Intracellular electrodes were placed in the 2 trapping wells, and the reference electrode in the waste well. Electrodes were connected to 64 conventional low-noise resistive feedback amplifiers. After cleaning, the plates were loaded with up to 100 µL of experimental solution or cell suspension per well. Each plate was loaded into the Fluxion Ionflux Mercury device, and a bespoke script primed the experimental fluidic channels and manifold, and the traps and sealed cells for voltage clamp measurements, and finally, controlled solution application/concentration jumps prior to saving the data collected. Agonist applications were repeated in triplicate (see Supplemental Figure S1). The current data were recorded at 10 kHz and stored for offline analysis. MATLAB scripts were used to measure the baseline leak current and peak response for each episode of data (typically 2000–4000/experiment). The matrix of peaks was expressed as a percentage of the response to a reference concentration. For the agonist concentration–response experiments, this was the maximum response. For the modulator concentration–response experiments, this was the EC10 agonist response.

[2] = one reference per drug; cited from earlier work
[3] = biological target: T1, Human GABAA receptor (α1β2γ2s) expressed in HEK293 cells (Homo sapiens, UniProt P14867+P18507+P47870); assay: Conventional whole-cell patch clamp: GABAA receptor activation and CSF-mediated potentiation; format: cell-based; conditions: for Effect on GABAA receptor activation (in words): conventional single electrode patch clamp
T1 construct: expressed in transfected cells; host or cells: HEK293
T1 sequence (P14867 28-456): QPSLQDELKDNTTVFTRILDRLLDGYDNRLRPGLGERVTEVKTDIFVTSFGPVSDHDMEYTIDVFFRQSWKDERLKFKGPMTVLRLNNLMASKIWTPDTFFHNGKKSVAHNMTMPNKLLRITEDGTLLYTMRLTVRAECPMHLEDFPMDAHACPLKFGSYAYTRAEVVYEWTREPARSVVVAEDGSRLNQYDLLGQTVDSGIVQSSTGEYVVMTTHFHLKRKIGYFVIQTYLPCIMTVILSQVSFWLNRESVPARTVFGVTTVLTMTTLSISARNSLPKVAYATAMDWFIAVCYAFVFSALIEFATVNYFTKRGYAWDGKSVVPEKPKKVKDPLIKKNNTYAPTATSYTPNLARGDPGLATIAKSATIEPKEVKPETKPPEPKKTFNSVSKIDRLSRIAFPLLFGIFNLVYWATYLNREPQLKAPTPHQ
T1 sequence (P47870 25-512 limits assumed): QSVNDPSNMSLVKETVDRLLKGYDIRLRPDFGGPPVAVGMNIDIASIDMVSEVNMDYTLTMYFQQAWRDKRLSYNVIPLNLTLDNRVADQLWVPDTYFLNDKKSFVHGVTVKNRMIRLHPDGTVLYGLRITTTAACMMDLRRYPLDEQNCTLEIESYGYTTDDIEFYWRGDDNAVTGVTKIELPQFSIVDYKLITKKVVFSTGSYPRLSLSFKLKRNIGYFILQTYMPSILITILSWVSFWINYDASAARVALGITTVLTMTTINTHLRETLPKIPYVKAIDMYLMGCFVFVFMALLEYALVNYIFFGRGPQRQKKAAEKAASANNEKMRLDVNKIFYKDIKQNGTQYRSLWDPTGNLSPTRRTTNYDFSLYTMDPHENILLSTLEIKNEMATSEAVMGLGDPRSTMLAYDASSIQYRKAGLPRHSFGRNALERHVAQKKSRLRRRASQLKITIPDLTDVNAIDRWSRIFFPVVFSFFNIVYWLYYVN
T1 sequence (P18507 40-467 isoform P18507-1 limits assumed): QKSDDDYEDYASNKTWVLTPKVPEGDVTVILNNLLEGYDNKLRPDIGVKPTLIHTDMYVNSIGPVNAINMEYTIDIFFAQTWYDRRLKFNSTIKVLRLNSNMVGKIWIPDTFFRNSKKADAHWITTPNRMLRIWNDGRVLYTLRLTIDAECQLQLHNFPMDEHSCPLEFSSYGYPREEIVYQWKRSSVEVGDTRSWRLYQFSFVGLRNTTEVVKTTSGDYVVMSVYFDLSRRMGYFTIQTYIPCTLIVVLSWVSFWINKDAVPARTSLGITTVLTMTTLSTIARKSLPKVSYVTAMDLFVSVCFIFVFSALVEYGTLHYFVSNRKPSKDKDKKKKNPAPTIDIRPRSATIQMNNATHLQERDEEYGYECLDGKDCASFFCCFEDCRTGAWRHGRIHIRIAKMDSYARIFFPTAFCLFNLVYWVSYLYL
Description: Human GABAA receptor cDNAs (α1β2γ2s) were subcloned into the pcDNA 3.1 expression vector, and they were subsequently transfected into HEK293 cells using standard methods. Forty-eight hours later, cells were exposed to individual GABAARNAM solutions with simultaneous exposure to GABA. GABAARNAMs were obtained from Sigma-Aldrich, and the solutions were prepared with a saline solution to 1–300 µM concentrations. […] Stable cell lines were generated and handled as previously described.
Patch pipettes were fabricated from thin-walled borosilicate glass (TW150F-4, World Precision Instruments, Inc., Sarasota, FL, USA) using a horizontal puller (P-97, Sutter Instrument Co., Novato, CA, USA). The resistances of the patch pipettes were 2–5 megaohms when filled with an intracellular solution containing 120 mM KCl, 2 mM MgCl2, 10 mM EGTA, and 10 mM HEPES, adjusted to pH 7.2 with NaOH. Cells were perfused continuously with an extracellular solution containing 160 mM NaCl, 10 mM HEPES, 6 mM D-glucose, 3 mM KCl, 1 mM MgCl2, and 1.5 mM CaCl2, adjusted to pH 7.4. Two 10-channel infusion pumps (KD Scientific) and a rapid solution exchanger (Biologic) were used to apply extracellular saline to the cells. […] The solution changer was driven by protocols written in pClamp 9.2 (Molecular Devices).

[4] = parameters: method as in PMID 10384859; conditions: cited from earlier work

NCCCC(=O)O [GABA]
Response to GABA as % of the maximal response ([1]; 100 µM GABA): > 90%

CCN(CCO)CCCC(C)Nc1ccnc2cc(Cl)ccc12 (stereo not shown) [Hydroxychloroquine, Hydroxychloroquine sulfate]
nH [1]: 1.4
Effect on GABAA receptor activation (in words) [1]: modest and incomplete block of receptor activation
[CNS] concentration of drug in the CNS [2]: 50 [39] μM

CC[C@H]1OC(=O)[C@H](C)[C@@H](O[C@H]2C[C@@](C)(OC)[C@@H](O)[C@H](C)O2)[C@H](C)[C@@H](O[C@@H]2O[C@H](C)C[C@H](N(C)C)[C@H]2O)[C@](C)(O)C[C@@H](C)C(=O)[C@H](C)[C@@H](O)[C@]1(C)O [Erythromycin]
[CNS] concentration of drug in the CNS [2]: 0.68 [38] μM

C1CCc2nnnn2CC1 [pentylenetetrazole, Pentylenetetrazol]
nH [1]: 1.3
Effect on GABAA receptor activation (in words) [1]: blocked GABAAR activation in a concentration-dependent manner
[CNS] concentration of drug in the CNS [2]: 330 [43] μM

O=C(O[C@@H]1Cc2c(O)cc(O)cc2O[C@@H]1c1cc(O)c(O)c(O)c1)c1cc(O)c(O)c(O)c1 [EGCG, (-)-Epigallocatechin Gallate]
nH [1]: 1.1
Effect on GABAA receptor activation (in words) [1]: modest inhibition of GABA activation
[CNS] concentration of drug in the CNS [2]: 0.18 [35] μM

CC[C@H]1OC(=O)[C@H](C)[C@@H](O[C@H]2C[C@@](C)(OC)[C@@H](O)[C@H](C)O2)[C@H](C)[C@@H](O[C@@H]2O[C@H](C)C[C@H](N(C)C)[C@H]2O)[C@](C)(OC)C[C@@H](C)C(=O)[C@H](C)[C@@H](O)[C@]1(C)O [Clarithromycin, clarithromycin]
Effect of clarithromycin concentration on GABA EC50 (in words) ([1]; GABA concentration–function relationships in 0–300 μM clarithromycin): GABA EC50 continued to increase
nH [1]: 1
Effect on GABAA receptor activation (in words) [1]: reversibly inhibited GABAA receptor activation in a concentration-dependent manner
[CNS] concentration of drug in the CNS [2]: 10 [37] μM
Reversal of CSF-induced potentiation of GABA receptor function ([3]; 300 μM clarithromycin, currents activated by 10 μM GABA (EC10), CSF from hypersomnolent patients, n = 6 cells): 71 ± 13%
Intrinsic efficacy at GABAA receptor (in words) ([3]; clarithromycin applied without GABA): no intrinsic efficacy
Effect on GABAA receptor activation (in words) [3]: reversibly inhibits receptor activation

CCN(CC)CCCC(C)Nc1ccnc2cc(Cl)ccc12 (stereo not shown) [Chloroquine]
[CNS] concentration of drug in the CNS [2]: 1.60 [36] μM

CN(C)c1ccc(O)c2c1C[C@H]1C[C@H]3[C@H](N(C)C)C(O)=C(C(N)=O)C(=O)[C@@]3(O)C(O)=C1C2=O [Minocycline]
Effect on GABAA receptor activation (in words) [1]: irreversible blocker
[CNS] concentration of drug in the CNS [2]: 1.1 [41] μM

CC1COc2c(N3CCN(C)CC3)c(F)cc3c(=O)c(C(=O)O)cn1c23 (stereo not shown) [Ofloxacin]
Effect on GABAA receptor activation (in words) [1]: modest and incomplete block of receptor activation
[CNS] concentration of drug in the CNS [2]: 5.6 [42] μM
Effect on GABAA receptor activation (in words) [3]: modest and incomplete block of receptor activation

Cc1ncc([N+](=O)[O-])n1CCO [Metronidazole]
nH [1]: 0.8
Effect on GABAA receptor activation (in words) [1]: modest inhibition of GABA activation
Bioavailability ([4]; administered orally): > 90%
CNS concentration as % of plasma concentrations [4]: 60–100%
